Laboratory results reported in patent US5843941A, “Ras farnesyl transferase inhibitors” (Genentech, Inc., priority 1994, dated 1998).

Assays:
[1] = target: T1, Rab GG transferase (Rattus norvegicus, UniProt Q08602+Q08603); assay: Inhibition of Rab GG transferase; assay type: biochemical; settings: FIG. 1C; Rab1A substrate; read-out: IC0.5 Rab GG transferase
T1 construct: purified Components A and B of Rab GG transferase; from tissue
T1 sequence (Q08602 1-567): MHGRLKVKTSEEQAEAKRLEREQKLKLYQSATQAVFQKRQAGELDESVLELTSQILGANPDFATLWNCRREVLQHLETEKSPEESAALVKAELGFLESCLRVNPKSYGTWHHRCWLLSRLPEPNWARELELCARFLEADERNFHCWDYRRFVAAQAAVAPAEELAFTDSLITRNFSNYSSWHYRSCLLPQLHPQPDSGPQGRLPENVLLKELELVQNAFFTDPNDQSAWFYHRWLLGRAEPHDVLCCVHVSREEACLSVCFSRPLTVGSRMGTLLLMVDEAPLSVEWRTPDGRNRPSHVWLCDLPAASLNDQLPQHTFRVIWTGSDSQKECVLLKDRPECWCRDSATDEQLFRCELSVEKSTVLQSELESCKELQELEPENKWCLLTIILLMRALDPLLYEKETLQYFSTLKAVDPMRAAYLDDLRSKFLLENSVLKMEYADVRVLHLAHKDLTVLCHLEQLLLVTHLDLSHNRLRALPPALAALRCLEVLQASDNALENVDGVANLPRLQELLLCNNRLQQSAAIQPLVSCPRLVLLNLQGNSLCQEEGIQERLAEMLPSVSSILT
T1 sequence (Q08603 1-331): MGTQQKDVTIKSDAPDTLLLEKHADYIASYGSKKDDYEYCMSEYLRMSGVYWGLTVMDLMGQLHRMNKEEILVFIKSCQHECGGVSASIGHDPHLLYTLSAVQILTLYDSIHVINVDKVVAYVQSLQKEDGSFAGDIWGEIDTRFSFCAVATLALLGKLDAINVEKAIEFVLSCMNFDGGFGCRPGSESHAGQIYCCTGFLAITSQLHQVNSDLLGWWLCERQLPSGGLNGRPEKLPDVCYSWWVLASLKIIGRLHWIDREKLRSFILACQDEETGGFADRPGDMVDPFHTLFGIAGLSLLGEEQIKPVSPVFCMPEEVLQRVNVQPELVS

[2] = tested on: H-ras(Val12)-transformed rat-1 fibroblasts (rat 2.2 cells); assay: Changes in morphology of H-ras-transformed cells; assay type: cell-based; settings: 5 days
Description: Compound 27A (denoted as BG269A in the figure) and compound 27B (denoted as BG269B in the figure) were added at 250 μM to test whether these compounds would induce reversion to a more normal phenotype as had been previously shown with microinjection of anti-Ras antibodies (see Feramisco, J. R. et al Nature 314, 639 (1985)). The H-ras transformed cells, denoted as rat 2.2 cells, were generated by transfection of rat-1 fibroblasts as described (see Seeburg, P. H., Colby, W. W., Capon, D. J., Goeddel, D. V., and Levinson, A. D. Nature 312,71 (1984)). Cells that overgrew the monolayer were extracted and plated onto agar to obtain a cell line displaying a fully transformed phenotype. Untransformed rat-1 fibroblasts and src-transformed rat-1 fibroblasts were also treated. The src-transformed cells were generated by co-transfection of rat-1 fibroblasts with pSV3.Neo.src, a vector containing the gene for src as well as the gene that confers G418 resistance, both under control of SV40 early promoters. G418-resistant cell clones that diplayed a transformed phenotype were used to generate the cell line. On day 0, cells were plated in monolayer culture at 3×10^3 cells per well (24-well plates) in 1 ml DMEM supplemented with 10% FCS, 100 U/ml penicillin, 10 μg/ml streptomycin, 2% DMSO, and 0.5 mM DTT with and without 200 μM inhibitor. On day 3, the cells were refed with the same medium. On day 5, the cells were photographed under contrast at a magnification of 100X. […] This change in morphology is remarkably similar to that seen following injection of anti-ras antibodies into ras-transformed cells (see Feramisco, J. R. et al Nature 314, 639 (1985)). Rat-1 fibroblasts transformed with the src oncogene also grew in a multilayered pattern (FIG. 6C), but this was not affected by compound 27A or compound 27B (FIG. 6D).

[3] = tested on: untransformed rat-1 fibroblasts; assay: Changes in morphology of untransformed cells; assay type: cell-based; settings: FIG. 6E and F
Description: Compound 27A (denoted as BG269A in the figure) and compound 27B (denoted as BG269B in the figure) were added at 250 μM to test whether these compounds would induce reversion to a more normal phenotype as had been previously shown with microinjection of anti-Ras antibodies (see Feramisco, J. R. et al Nature 314, 639 (1985)). The H-ras transformed cells, denoted as rat 2.2 cells, were generated by transfection of rat-1 fibroblasts as described (see Seeburg, P. H., Colby, W. W., Capon, D. J., Goeddel, D. V., and Levinson, A. D. Nature 312,71 (1984)). Cells that overgrew the monolayer were extracted and plated onto agar to obtain a cell line displaying a fully transformed phenotype. Untransformed rat-1 fibroblasts and src-transformed rat-1 fibroblasts were also treated. The src-transformed cells were generated by co-transfection of rat-1 fibroblasts with pSV3.Neo.src, a vector containing the gene for src as well as the gene that confers G418 resistance, both under control of SV40 early promoters. G418-resistant cell clones that diplayed a transformed phenotype were used to generate the cell line. On day 0, cells were plated in monolayer culture at 3×10^3 cells per well (24-well plates) in 1 ml DMEM supplemented with 10% FCS, 100 U/ml penicillin, 10 μg/ml streptomycin, 2% DMSO, and 0.5 mM DTT with and without 200 μM inhibitor. On day 3, the cells were refed with the same medium. […]

[4] = tested on: HT-1080 cells; assay: Growth inhibition of human tumor line HT-1080; assay type: cell-based; settings: HT-1080, fibrosarcoma, ras transformed, read-out: % growth inhib.
Description: (§1) To examine the effects of farnesyltransferase inhibition on cell growth, three cell lines (ras-transformed rat-1, src-transformed rat-1, and parental rat-1 cells) were seeded (see FIG. 7) at low density and allowed to grow for 10 days in the absence or presence of increasing concentrations of BZA-5B (compound 37). See Example 128 for description of cells. On day 0, cells were plated in monolayer culture at 2×10^3 cells per well (24-well plates) in 1 ml DMEM supplemented with 10% fetal calf serum, 100 U/ml penicillin, 100 μg/ml streptomycin, 0.5 mM DTT, 0.025% DMSO, and the indicated concentration of BZA-5B (compound 37). On days 3 and 7, cells were washed and refed with the same medium. At the time indicated in FIG. 7, cells were harvested by trypsinization and counted in a Coulter counter. Panels A, C, E show the growth rate of each cell line in the absence of inhibitor. Panels B, D, F show the inhibition of growth as a function of concentration of BZA-5B at each time point. […]
(§2) To examine the effects of farnesyltransferase inhibition on the growth of human tumor cell lines, several such lines were treated with 25 μM BZA-5B (compound 37B) using a procedure similar to that described in Example 129 above. Cells were refed with fresh media at days 3 and 6 containing the inhibitor, and were harvested and counted as described above. […]

[5] = tested on: SW-480 cells; assay: Growth inhibition of human tumor line SW-480; assay type: cell-based; settings: SW480, SW-480, colon, ras transformed, read-out: % growth inhib.
Description: as §1, §2

[6] = tested on: HCT-116 cells; assay: Growth inhibition of human tumor line HCT-116; assay type: cell-based; settings: HCT-116, colon, ras transformed, read-out: % growth inhib.
Description: as §1, §2

Row | SMILES | IC50 [1] | effect on transformed phenotype (morphology) ([2]; FIG. 6A/6B) | effect on cell density ([2]; FIG. 6B) | effect on morphology of untransformed cells [3] | inhibition at 25 µM [4] | inhibition at 25 µM [5] | inhibition at 25 µM [6]
1 | CSCC[C@H](NC(=O)CN1C(=O)C(N(C)C(=O)[C@@H](N)CS)N=C(c2ccccc2)c2ccccc21)C(=O)O (single isomer, unassigned) [27B] | 5.5 µM | reversed the transformed phenotype | grew to lower cell density | no apparent effect on the morphology of untransformed rat-1 fibroblasts |  |  | 
2 | COC(=O)[C@H](CCSC)NC(=O)CN1C(=O)C(N(C)C(=O)[C@@H](N)CS)N=C(c2ccccc2)c2ccccc21 (single isomer, unassigned) [37B] |  |  |  |  | 64% | 45% | 0%
